{"source": "paper PMC10562414", "about": "“GLP-1R signaling neighborhoods associate with the susceptibility to adverse drug reactions of incretin mimetics” (Nature Communications, 2023)", "key": {"GLP-1R [1]": {"target": "T1, GLP-1R (Homo sapiens, UniProt P43220)", "T1 sequence (P43220 24-463)": "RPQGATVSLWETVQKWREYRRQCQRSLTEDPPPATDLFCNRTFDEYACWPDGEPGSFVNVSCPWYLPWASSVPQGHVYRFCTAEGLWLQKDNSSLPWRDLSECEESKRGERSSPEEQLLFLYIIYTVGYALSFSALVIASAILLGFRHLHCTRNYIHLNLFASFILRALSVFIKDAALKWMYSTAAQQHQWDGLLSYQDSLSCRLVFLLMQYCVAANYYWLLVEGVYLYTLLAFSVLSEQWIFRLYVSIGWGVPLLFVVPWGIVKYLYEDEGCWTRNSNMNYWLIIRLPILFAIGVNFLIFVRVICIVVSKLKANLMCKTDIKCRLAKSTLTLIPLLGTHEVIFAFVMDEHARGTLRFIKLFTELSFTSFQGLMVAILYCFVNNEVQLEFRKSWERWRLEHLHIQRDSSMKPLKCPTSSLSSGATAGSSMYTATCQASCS", "assay": "ebBRET pathway activation (15 pathways) at early endosomes (rGFP-FYVE)", "assay_type": "cell-based", "conditions": "for Efficacy (normalized) / Potency (logEC50) / Emax: Early endosomes", "procedure": "Subcellular resolution was achieved by using organelle-specific energy acceptors for early endosomes, the Golgi apparatus and the endoplasmic reticulum.\nData are represented as the mean ± SEM (n = 3 biologically independent experiments). EE early endosomes, GA Golgi apparatus, ER endoplasmic reticulum.\nHEK293 cells were cultured in DMEM supplemented with 10% FBS, 1% penicillin/streptomycin, propagated in plastic flasks and grown at 37 °C in 5% CO2 and 90% humidity. […] After a 48-hour incubation, cells were washed once with HBSS and maintained in the same buffer.\nBest fit values were excluded if EC50 was outside of the concentration range tested or if the span was negative.\nPharmacological characterization of GLP-1R agonist signaling\nprofiles at early endosomes. a, Illustration depicting the ebBRET approach to monitoring\nsignaling at early endosomes. b, Concentration-response curves of GLP-1R agonists across 15\npathways at early endosomes using rGFP-F YVE. Data are represented by the non-linear fit and\nscaled according to the highest responding drug (n=3 biologic ally independent samples).\nDrug-s pecific polar area diagrams for efficacy (normalized to the highest responding drug) (c)\nDrugs were deemed to activate\na given pathway after comparing the top and bottom parameters from non-linear regression by\nJaccard similarity index for efficacy (e) and potency (f) quantifies similarities and\ndifferences across drug responses.\nDrug- induced transducer engagement by GLP- 1R at early\nendosomes. Agonist concentration response curves for 15 transducers at early endosomes.\nDrugs were deemed to activate a given pathway after comparing the top and bottom parameters\nfrom non-linear regression by one-sided extra sum-o f-s quares F-t est followed by Bonferroni\nData are represented as the mean ± SEM (n=3\nbiologically independent samples). Sigmoidal dose-r esponse curves are present for\nresponsive pathways and flat lines indicate non-r esponding pathway s.\nPolar area diagrams depict pathway activation at early endosomes.\nPathway-specific polar area diagrams for efficacy (normalized to the highest responding drug) (a)\nDrugs were deemed to activate a\ngiven pathway after comparing the top and bottom parameters from non-linear regression by"}, "GLP-1R [2]": {"target": "T1, GLP-1R", "assay": "Hierarchical / k-means / fuzzy clustering of GLP-1R agonist signaling profiles (z-scored Emax and EC50, cluster centers)", "source_text": "Using ebBRET, we extended our pathway profiling to endosomes, the Golgi apparatus and the endoplasmic reticulum. […] In short, positive k-means cluster centers were indicative of high potency or efficacy in a specific pathway and compartment, whereas negative k-means cluster centers could be interpreted as pathways that were underrepresented or not activated by a given drug cluster (Fig. 6c).\nEfficacy and potency were extracted from concentration-response curves and aggregated before k-means clustering. b Hierarchical clustering of GLP-1R agonists based on signaling neighborhood profiles. c Cluster centers of distinct drug clusters identified by k-means clustering. Defining cluster features are listed by rank order, and the top and bottom five features are highlighted for each cluster.\nrepresented as z-scores. Pathways that were not activated by GLP-1R upon exposure to ligand\naccording to efficacy or potency, compartments, and pathways. Pathways that were not activated\nby any drug were removed for clarity. c, Heatmap and hierarchical clustering of efficacy for 8\ndrugs in 15 pathways and 4 cellular compartments. Data are represented as z-scores."}, "GLP-1R [3]": {"target": "T1, GLP-1R", "assay": "ebBRET pathway activation (effector membrane translocation, 15 pathways) at the plasma membrane (rGFP-CAAX)", "assay_type": "cell-based", "set-up": "Potency (logEC50): scale not given here", "conditions": "for Efficacy (normalized) / Emax / Potency (logEC50): Plasma membrane; for Efficacy (normalized): Fig. 2c; for Potency (logEC50): Fig. 2d"}}}
{"smiles": "N#Cc1ccc(COc2cccc(C3CCN(Cc4nc5ccc(C(=O)O)cc5n4C[C@@H]4CCO4)CC3)n2)c(F)c1", "note": "[Danuglipron]", "values": [{"measurement": "Efficacy (normalized)", "setting": "GLP-1R [1]; GRK2/Gβγ", "value": 0.507}, {"measurement": "Potency (logEC50)", "setting": "GLP-1R [1]; GRK2/Gβγ", "value": 0.4671}, {"measurement": "Efficacy (normalized)", "setting": "GLP-1R [1]; Gα11", "value": 0}, {"measurement": "Emax", "setting": "GLP-1R [1]; Gα11", "value": 0}, {"measurement": "Potency (logEC50)", "setting": "GLP-1R [1]; Gα11", "value": 0}, {"measurement": "Efficacy (normalized)", "setting": "GLP-1R [1]; Gα12", "value": 0}, {"measurement": "Emax", "setting": "GLP-1R [1]; Gα12", "value": 0}, {"measurement": "Potency (logEC50)", "setting": "GLP-1R [1]; Gα12", "value": 0}, {"measurement": "Efficacy (normalized)", "setting": "GLP-1R [1]; Gα13", "value": 0}, {"measurement": "Emax", "setting": "GLP-1R [1]; Gα13", "value": 0}, {"measurement": "Potency (logEC50)", "setting": "GLP-1R [1]; Gα13", "value": 0}, {"measurement": "Efficacy (normalized)", "setting": "GLP-1R [1]; Gα14", "value": 0.9516}, {"measurement": "Emax", "setting": "GLP-1R [1]; Gα14", "value": 0.02161}, {"measurement": "Potency (logEC50)", "setting": "GLP-1R [1]; Gα14", "value": 0.7414}, {"measurement": "Efficacy (normalized)", "setting": "GLP-1R [1]; Gα15", "value": 0}, {"measurement": "Emax", "setting": "GLP-1R [1]; Gα15", "value": 0}, {"measurement": "Potency (logEC50)", "setting": "GLP-1R [1]; Gα15", "value": 0}, {"measurement": "Efficacy (normalized)", "setting": "GLP-1R [1]; Gαi1", "value": 0}, {"measurement": "Emax", "setting": "GLP-1R [1]; Gαi1", "value": 0}, {"measurement": "Potency (logEC50)", "setting": "GLP-1R [1]; Gαi1", "value": 0}, {"measurement": "Efficacy (normalized)", "setting": "GLP-1R [1]; Gαi2", "value": 0}, {"measurement": "Emax", "setting": "GLP-1R [1]; Gαi2", "value": 0}, {"measurement": "Potency (logEC50)", "setting": "GLP-1R [1]; Gαi2", "value": 0}, {"measurement": "Efficacy (normalized)", "setting": "GLP-1R [1]; Gαi3", "value": 0}, {"measurement": "Emax", "setting": "GLP-1R [1]; Gαi3", "value": 0}, {"measurement": "Potency (logEC50)", "setting": "GLP-1R [1]; Gαi3", "value": 0}, {"measurement": "Efficacy (normalized)", "setting": "GLP-1R [1]; GαoA", "value": 0.4649}, {"measurement": "Emax", "setting": "GLP-1R [1]; GαoA", "value": 0.009912}, {"measurement": "Potency (logEC50)", "setting": "GLP-1R [1]; GαoA", "value": 0.573}, {"measurement": "Efficacy (normalized)", "setting": "GLP-1R [1]; GαoB", "value": 0.7256}, {"measurement": "Emax", "setting": "GLP-1R [1]; GαoB", "value": 0.03076}, {"measurement": "Potency (logEC50)", "setting": "GLP-1R [1]; GαoB", "value": 0.2577}, {"measurement": "Efficacy (normalized)", "setting": "GLP-1R [1]; Gαq", "value": 0}, {"measurement": "Emax", "setting": "GLP-1R [1]; Gαq", "value": 0}, {"measurement": "Potency (logEC50)", "setting": "GLP-1R [1]; Gαq", "value": 0}, {"measurement": "Efficacy (normalized)", "setting": "GLP-1R [1]; Gαs", "value": 0}, {"measurement": "Emax", "setting": "GLP-1R [1]; Gαs", "value": 0}, {"measurement": "Potency (logEC50)", "setting": "GLP-1R [1]; Gαs", "value": 0}, {"measurement": "Efficacy (normalized)", "setting": "GLP-1R [1]; Gαz", "value": 0.5189}, {"measurement": "Emax", "setting": "GLP-1R [1]; Gαz", "value": 0.05365}, {"measurement": "Potency (logEC50)", "setting": "GLP-1R [1]; Gαz", "value": 0.2291}, {"measurement": "Efficacy (normalized)", "setting": "GLP-1R [1]; βARR2", "value": 0.458}, {"measurement": "Potency (logEC50)", "setting": "GLP-1R [1]; βARR2", "value": 0.384}, {"measurement": "Emax", "setting": "GLP-1R [1]; GRK/Gβγ", "value": 0.1194}, {"measurement": "Emax", "setting": "GLP-1R [1]; βARR", "value": 0.07877}, {"measurement": "mGs recruitment at early endosomes, in words", "setting": "GLP-1R [1]; Rluc8-mGs, rGFP-FYVE, 60 min, n = 3", "value": "did not promote mGs recruitment at early endosomes at the concentrations tested"}, {"measurement": "z-scores", "setting": "GLP-1R [2]", "value": -0.3536}, {"measurement": "drug cluster (hierarchical / k-means)", "setting": "GLP-1R [2]; efficacy and potency, 15 pathways, 4 compartments", "value": 4}, {"measurement": "defining cluster features, in words", "setting": "GLP-1R [2]; k-means cluster centers", "value": "endoplasmic reticulum-localized recruitment of mGs and decreased recruitment of βARR at the plasma membrane"}, {"measurement": "pathway activation at the plasma membrane, in words", "setting": "GLP-1R [3]; 15 pathways, HEK293, ebBRET", "value": "biased away from βARR towards Gs and Gi/o"}, {"measurement": "Efficacy (normalized)", "setting": "GLP-1R [3]; GRK2/Gβγ", "value": 0.6954}, {"measurement": "Emax", "setting": "GLP-1R [3]; GRK/Gβγ", "value": 0.5067}, {"measurement": "Emax", "setting": "GLP-1R [3]; Gα11", "value": 0}, {"measurement": "Efficacy (normalized)", "setting": "GLP-1R [3]; Gα11", "value": 0}, {"measurement": "Potency (logEC50)", "setting": "GLP-1R [3]; Gα11", "value": 0}, {"measurement": "Emax", "setting": "GLP-1R [3]; Gα12", "value": 0}, {"measurement": "Efficacy (normalized)", "setting": "GLP-1R [3]; Gα12", "value": 0}, {"measurement": "Potency (logEC50)", "setting": "GLP-1R [3]; Gα12", "value": 0}, {"measurement": "Emax", "setting": "GLP-1R [3]; Gα13", "value": 0}, {"measurement": "Efficacy (normalized)", "setting": "GLP-1R [3]; Gα13", "value": 0}, {"measurement": "Potency (logEC50)", "setting": "GLP-1R [3]; Gα13", "value": 0}, {"measurement": "Emax", "setting": "GLP-1R [3]; Gα14", "value": 0}, {"measurement": "Efficacy (normalized)", "setting": "GLP-1R [3]; Gα14", "value": 0}, {"measurement": "Potency (logEC50)", "setting": "GLP-1R [3]; Gα14", "value": 0}, {"measurement": "Emax", "setting": "GLP-1R [3]; Gα15", "value": 0}, {"measurement": "Efficacy (normalized)", "setting": "GLP-1R [3]; Gα15", "value": 0}, {"measurement": "Potency (logEC50)", "setting": "GLP-1R [3]; Gα15", "value": 0}, {"measurement": "Emax", "setting": "GLP-1R [3]; Gαi1", "value": 0.0218}, {"measurement": "Efficacy (normalized)", "setting": "GLP-1R [3]; Gαi1", "value": 0.3729}, {"measurement": "Potency (logEC50)", "setting": "GLP-1R [3]; Gαi1", "value": 0.3182}, {"measurement": "Emax", "setting": "GLP-1R [3]; Gαi2", "value": 0.2304}, {"measurement": "Efficacy (normalized)", "setting": "GLP-1R [3]; Gαi2", "value": 0.9309}, {"measurement": "Potency (logEC50)", "setting": "GLP-1R [3]; Gαi2", "value": 0.1266}, {"measurement": "Emax", "setting": "GLP-1R [3]; Gαi3", "value": 0.03983}]}
